The test has as its target N-type calcium channel currents (Cav2.2) in rDRG neurons (Rattus norvegicus, UniProt Q02294). Description: cell-based. The settings on record: SEM.

Positions of bridges follow the written chain, without caps; N, C: chain ends. Non-standard residues stand in square brackets, D forms with d. Residues, ends and D or L forms follow the SMILES beside them. Hyp = O=C(O)[C@@H]1C[C@@H](O)CN1

Chain of N-type calcium channel currents (Cav2.2) in rDRG neurons (Q02294 whole entry, looked up): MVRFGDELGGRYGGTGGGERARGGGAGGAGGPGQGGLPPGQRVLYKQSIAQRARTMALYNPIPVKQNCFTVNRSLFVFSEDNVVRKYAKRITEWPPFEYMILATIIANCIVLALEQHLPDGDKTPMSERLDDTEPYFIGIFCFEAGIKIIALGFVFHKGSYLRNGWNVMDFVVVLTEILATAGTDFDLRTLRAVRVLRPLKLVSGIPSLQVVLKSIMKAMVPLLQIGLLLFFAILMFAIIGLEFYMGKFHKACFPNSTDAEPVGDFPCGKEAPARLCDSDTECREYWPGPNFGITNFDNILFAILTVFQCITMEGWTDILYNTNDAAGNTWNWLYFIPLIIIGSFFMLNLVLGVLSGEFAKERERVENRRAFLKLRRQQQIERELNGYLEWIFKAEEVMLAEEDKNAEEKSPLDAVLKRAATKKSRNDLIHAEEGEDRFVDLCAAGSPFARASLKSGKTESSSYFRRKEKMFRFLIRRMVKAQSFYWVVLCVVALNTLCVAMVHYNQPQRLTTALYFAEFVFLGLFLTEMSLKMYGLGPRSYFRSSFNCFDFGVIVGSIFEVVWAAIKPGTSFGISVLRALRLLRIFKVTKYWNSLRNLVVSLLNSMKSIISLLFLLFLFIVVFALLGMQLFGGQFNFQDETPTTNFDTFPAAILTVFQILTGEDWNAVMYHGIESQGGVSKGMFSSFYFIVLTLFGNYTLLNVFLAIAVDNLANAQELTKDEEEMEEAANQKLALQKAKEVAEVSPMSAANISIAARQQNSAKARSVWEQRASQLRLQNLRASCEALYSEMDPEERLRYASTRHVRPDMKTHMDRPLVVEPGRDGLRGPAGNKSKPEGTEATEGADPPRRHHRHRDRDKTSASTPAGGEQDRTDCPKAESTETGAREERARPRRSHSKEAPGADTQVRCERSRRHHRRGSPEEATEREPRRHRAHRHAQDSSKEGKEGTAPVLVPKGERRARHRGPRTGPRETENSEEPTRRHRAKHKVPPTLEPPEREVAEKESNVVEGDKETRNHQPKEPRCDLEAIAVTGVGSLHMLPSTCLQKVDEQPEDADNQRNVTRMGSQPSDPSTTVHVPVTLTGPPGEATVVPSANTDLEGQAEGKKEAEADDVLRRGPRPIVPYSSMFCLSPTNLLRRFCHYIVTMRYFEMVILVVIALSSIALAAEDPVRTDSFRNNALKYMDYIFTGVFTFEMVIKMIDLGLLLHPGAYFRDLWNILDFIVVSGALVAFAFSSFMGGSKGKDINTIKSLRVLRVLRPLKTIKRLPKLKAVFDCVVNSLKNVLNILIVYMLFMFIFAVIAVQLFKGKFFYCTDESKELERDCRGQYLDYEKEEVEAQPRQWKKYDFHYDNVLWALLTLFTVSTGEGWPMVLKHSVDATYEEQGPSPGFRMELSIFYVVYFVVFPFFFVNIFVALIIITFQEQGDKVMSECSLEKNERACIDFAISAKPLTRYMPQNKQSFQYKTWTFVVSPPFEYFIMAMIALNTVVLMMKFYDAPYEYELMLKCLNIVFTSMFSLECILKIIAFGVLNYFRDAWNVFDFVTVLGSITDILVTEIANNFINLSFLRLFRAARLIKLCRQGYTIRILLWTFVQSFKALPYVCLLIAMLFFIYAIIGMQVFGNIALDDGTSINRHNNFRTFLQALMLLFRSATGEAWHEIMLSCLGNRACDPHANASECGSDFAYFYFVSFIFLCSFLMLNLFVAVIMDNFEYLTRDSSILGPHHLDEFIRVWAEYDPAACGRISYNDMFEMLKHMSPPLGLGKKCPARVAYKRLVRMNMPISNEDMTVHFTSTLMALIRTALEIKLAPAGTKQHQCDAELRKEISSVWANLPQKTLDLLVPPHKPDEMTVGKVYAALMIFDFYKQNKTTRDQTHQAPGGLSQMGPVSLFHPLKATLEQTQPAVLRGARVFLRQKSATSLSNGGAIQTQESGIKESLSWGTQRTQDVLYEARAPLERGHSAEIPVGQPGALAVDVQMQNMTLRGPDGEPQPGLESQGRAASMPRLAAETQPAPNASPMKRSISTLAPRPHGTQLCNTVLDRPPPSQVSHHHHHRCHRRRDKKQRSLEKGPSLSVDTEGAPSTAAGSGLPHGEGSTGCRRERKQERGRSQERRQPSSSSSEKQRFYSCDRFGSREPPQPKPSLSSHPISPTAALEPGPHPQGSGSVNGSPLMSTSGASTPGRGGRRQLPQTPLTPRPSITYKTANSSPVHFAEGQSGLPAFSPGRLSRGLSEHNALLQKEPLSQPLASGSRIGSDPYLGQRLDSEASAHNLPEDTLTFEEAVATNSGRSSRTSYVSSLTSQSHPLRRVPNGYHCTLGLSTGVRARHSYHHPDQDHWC

Usually IC50 stands for the midpoint of a concentration-inhibition curve. `CC[C@H](C)[C@@H]1NC(=O)[C@@H]2CSSC[C@@H]3NC(=O)[C@H](CCCCN)NC(=O)[C@H](CO)NC(=O)CNC(=O)[C@@H]4C[C@@H](O)CN4C(=O)[C@@H]4CCCN4C(=O)[C@H](CCCCN)NC(=O)[C@@H](N)CSSC[C@H](NC(=O)[C@H](CSSC[C@@H](C(=O)N[C@@H](CCCNC(=N)N)C(=O)N[C@@H](CCCCN)C(=O)N[C@@H](Cc4ccc(O)cc4)C(=O)N[C@@H](Cc4ccc(O)cc4)C(=O)O)NC(=O)[C@H](CCCNC(=N)N)NC(=O)[C@H](CCCCN)NC(=O)[C@H]([C@@H](C)O)NC(=O)[C@H](Cc4ccc(O)cc4)NC(=O)[C@H](CO)NC1=O)NC(=O)[C@H](CC(=O)O)NC(=O)[C@H](Cc1ccc(O)cc1)NC(=O)[C@H](CCSC)NC(=O)[C@H](CO)NC(=O)[C@@H]1C[C@@H](O)CN1C(=O)[C@H](CO)NC3=O)C(=O)N[C@@H]([C@@H](C)O)C(=O)N[C@@H]([C@@H](C)O)C(=O)N2` [MoVIB-[R13Y]] (H-CKP[Hyp]GSKCS[Hyp]SMYDCCTTCISYTKRCRKYY-OH; disulfide 1-16, 8-19, 15-26): the half-maximal inhibitory concentration (IC50) amounted to 900 ± 130 nM.

The record behind these values is article PMC6128854 (Scientific Reports, 2018).
